We go through 15 compounds from patent US6005116A, “Isoxazole compounds useful for the prophylaxis or treatment of nervous diseases” (Sankyo Company, Limited, priority 1996, dated 1999).

Molecules are shown by their SMILES. Counter-ions that a name gives are not always drawn.

The target of one test is T1, Type A-monoamine oxidase (Mus musculus, UniProt Q64133).
T1 sequence (Q64133 1-526): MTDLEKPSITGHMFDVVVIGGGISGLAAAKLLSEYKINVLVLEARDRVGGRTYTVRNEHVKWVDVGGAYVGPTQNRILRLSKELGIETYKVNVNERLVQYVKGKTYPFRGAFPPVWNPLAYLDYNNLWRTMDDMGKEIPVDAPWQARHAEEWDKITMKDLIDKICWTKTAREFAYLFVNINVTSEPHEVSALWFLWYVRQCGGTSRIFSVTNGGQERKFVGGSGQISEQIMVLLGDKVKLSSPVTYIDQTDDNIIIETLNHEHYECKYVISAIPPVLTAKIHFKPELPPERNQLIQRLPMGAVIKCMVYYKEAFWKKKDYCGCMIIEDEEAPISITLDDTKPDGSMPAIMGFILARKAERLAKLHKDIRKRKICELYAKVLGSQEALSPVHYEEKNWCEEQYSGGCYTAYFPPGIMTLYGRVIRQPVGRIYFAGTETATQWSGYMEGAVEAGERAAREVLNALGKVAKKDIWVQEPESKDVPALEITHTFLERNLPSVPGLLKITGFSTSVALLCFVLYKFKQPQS
Nature of the test: Type A-monoamine oxidase inhibitory activity. In kind it is biochemical.
Conditions: not given
Consider `CC(C)c1c(OCCN)noc1-c1ccc(Cl)cc1Cl` [Example 57, 3-(2-Aminoethoxy)-5-(2,4-dichlorophenyl)-4-isopropylisoxazole hydrochloride], for which the IC50 was < 28 nM.

The test is the same for the next values; noted with them: mouse brain crude mitochondria; substrate 14C-5-HT 100 μM; preincubated at 38° C. for 20 minutes; phosphate buffer pH 7.4; read-out: IC50 (concentration of the compound which decreases the 14C radioactivity of the control by 50%).
As for `NCCOc1cc(-c2ccccc2)on1` [Example 1, 3-(2-Aminoethoxy)-5-phenylisoxazole hydrochloride], the IC50 is < 28 nM.
As for `NCCOc1noc(-c2cccnc2)c1Cl` [Example 8, 3-(2-Aminoethoxy)-4-chloro-5-(3-pyridyl)isoxazole hydrochloride], the IC50 was < 28 nM.
Same read-out and setting: under `CC(C)Cc1c(OCCN)noc1-c1ccccc1` [Example 62, 3-(2-Aminoethoxy)-4-isobutyl-5-phenylisoxazole hydrochloride] stands < 28 nM; under `CC(C)c1c(OCCN)noc1-c1ccccc1` [Example 4, 3-(2-Aminoethoxy)-4-isopropyl-5-phenylisoxazole hydrochloride], < 28 nM.
Same read-out and setting: the figure for `NCCOc1cc(-c2cccs2)on1` [Example 5, 3-(2-Aminoethoxy)-5-(2-thienyl)isoxazole hydrochloride] is < 28 nM.
On the same count and under the same terms, the figure for `NCCOc1noc(-c2cccs2)c1Cl` [Example 6, 3-(2-Aminoethoxy)-4-chloro-5-(2-thienyl)isoxazole hydrochloride] is < 28 nM; for `NCCOc1noc(-c2ccccc2)c1Cl` [Example 2, 3-(2-Aminoethoxy)-4-chloro-5-phenylisoxazole hydrochloride] it is < 28 nM; for `CC(C)c1c(OCCN)noc1-c1ccco1` [Example 54, 3-(2-Aminoethoxy-5-(2-furyl)-4-isopropylisoxazole hydrochloride] it is < 28 nM.
For `CC(C)c1c(OCCN)noc1-c1cccs1` [Example 67, 3-(2-Aminoethoxy)-4-isopropyl-5-(2-thienyl)isoxazole hydrochloride], the IC50 is < 28 nM.
In the case of `CC(C)c1c(OCCN)noc1-c1ccc(Cl)cc1` [Example 59, 3-(2-Aminoethoxy)-5-(4-chlorophenyl)-4-isopropylisoxazole hydrochloride], the IC50 is < 28 nM.
On the same count and under the same terms, under `CC(C)c1c(OCCN)noc1-c1ccccc1Cl` [Example 58, 3-(2-Aminoethoxy)-5-(2-chlorophenyl)-4-isopropylisoxazole hydrochloride] stands < 28 nM.
On the same count and under the same terms, under `NCCOc1cc(-c2cccnc2)on1` [Example 7, 3-(2-Aminoethoxy)-5-(3-pyridyl)isoxazole hydrochloride] stands < 28 nM; under `NCCOc1cc(-c2ccc(Cl)cc2)on1` [Example 3, 3-(2-Aminoethoxy)-5-(4-chlorophenyl)isoxazole hydrochloride], < 28 nM.
On the same count and under the same terms, the figure for `C=CCc1c(OCCN)noc1-c1ccccc1` [Example 60, 4-Allyl-3-(2-aminoethoxy)-5-phenylisoxazole hydrochloride] is < 28 nM.
